Patent US20120121591A1 (priority 2009, published 2012)

Key:
Assay type in all cases: cell-based
[1] = biological target: hKv1.3 (Homo sapiens, UniProt P22001); assay: cell-based; conditions: Kv1.3 (IWQ) IC50 (nM, Avg)
[2] = system: IL-2 secretion from T cells in human whole blood; conditions: read-out: WB (IL-2) IC50 (nM, Avg)
[3] = system: IFN-g secretion from T cells in human whole blood; conditions: read-out: WB (IFNg) IC50 (nM, Avg)

Sequence of hKv1.3 (P22001 whole entry): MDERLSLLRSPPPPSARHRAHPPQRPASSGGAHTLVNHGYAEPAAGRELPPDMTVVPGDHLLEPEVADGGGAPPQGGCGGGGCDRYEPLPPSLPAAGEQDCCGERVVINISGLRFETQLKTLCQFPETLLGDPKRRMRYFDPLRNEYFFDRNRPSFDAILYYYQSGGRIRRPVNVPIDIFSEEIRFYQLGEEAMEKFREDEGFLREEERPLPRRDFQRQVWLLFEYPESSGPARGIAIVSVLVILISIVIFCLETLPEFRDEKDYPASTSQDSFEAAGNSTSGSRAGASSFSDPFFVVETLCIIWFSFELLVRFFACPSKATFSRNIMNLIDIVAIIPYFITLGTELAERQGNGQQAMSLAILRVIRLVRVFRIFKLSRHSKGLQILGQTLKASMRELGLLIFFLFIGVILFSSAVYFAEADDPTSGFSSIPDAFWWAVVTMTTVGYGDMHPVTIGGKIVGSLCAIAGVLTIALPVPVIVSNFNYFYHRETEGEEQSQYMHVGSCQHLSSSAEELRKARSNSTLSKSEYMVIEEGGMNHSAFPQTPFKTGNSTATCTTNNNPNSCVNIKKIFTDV

SMILES | IC50 [1] [nM] | IC50 [2] [nM] | IC50 [3] [nM]
CC[C@H](C)[C@@H]1NC(=O)[C@@H](NC(=O)[C@H](CCCCN)NC(=O)[C@@H](N)CCCNC(=N)N)CSSC[C@@H](C(=O)O)NC(=O)[C@H]([C@@H](C)O)NC(=O)CNC(=O)[C@@H]2CSSC[C@@H]3NC(=O)[C@H](CCC(N)=O)NC(=O)[C@H](Cc4ccccc4)NC(=O)[C@H](C)NC(=O)[C@H]([C@@H](C)O)NC(=O)[C@H](CSSC[C@H](NC(=O)[C@H](Cc4ccccc4)NC(=O)[C@H](CO)NC(=O)[C@H](CC(C)C)NC(=O)[C@H](CCCNC(=N)N)NC(=O)[C@H](Cc4ccc(O)cc4)NC(=O)[C@H](CCCCN)NC(=O)[C@H](CCSC)NC(=O)[C@H](CO)NC(=O)[C@H](Cc4c[nH]cn4)NC(=O)[C@H](CCCCN)NC3=O)C(=O)N[C@@H](CCCNC(=N)N)C(=O)N[C@@H](CCCCN)C(=O)N[C@@H]([C@@H](C)O)C(=O)N2)NC(=O)[C@H](CCCNC(=N)N)NC(=O)[C@H](CO)NC(=O)[C@H](CCCCN)NC(=O)[C@@H]2CCCN2C(=O)[C@H]([C@@H](C)CC)NC(=O)[C@H]([C@@H](C)O)NC(=O)[C@H](CC(=O)O)NC1=O [[Lys2]ShK] | 0.149 | 0.099 | 0.093
CC[C@H](C)[C@@H]1NC(=O)[C@@H](NC(=O)[C@H](CO)NC(=O)[C@@H](N)CCCNC(=N)N)CSSC[C@@H](C(=O)O)NC(=O)[C@H]([C@@H](C)O)NC(=O)CNC(=O)[C@@H]2CSSC[C@@H]3NC(=O)[C@H](CCC(N)=O)NC(=O)[C@H](Cc4ccccc4)NC(=O)[C@H](C)NC(=O)[C@H]([C@@H](C)O)NC(=O)[C@H](CSSC[C@H](NC(=O)[C@H](Cc4ccccc4)NC(=O)[C@H](CO)NC(=O)[C@H](CC(C)C)NC(=O)[C@H](CCCNC(=N)N)NC(=O)[C@H](Cc4ccc(O)cc4)NC(=O)[C@H](CCCCN)NC(=O)[C@H](CCSC)NC(=O)[C@H](CO)NC(=O)[C@H](Cc4c[nH]cn4)NC(=O)[C@H](CCCCN)NC3=O)C(=O)N[C@@H](CCCNC(=N)N)C(=O)N[C@@H](CCCCN)C(=O)N[C@@H]([C@@H](C)O)C(=O)N2)NC(=O)[C@H](CCCNC(=N)N)NC(=O)[C@H](CO)NC(=O)[C@H](CCCCN)NC(=O)[C@@H]2CCCN2C(=O)[C@H](CCCCN)NC(=O)[C@H]([C@@H](C)O)NC(=O)[C@H](CC(=O)O)NC1=O [[Lys7]ShK] | 0.792 | 4.67 | 13.5
CC[C@H](C)[C@@H]1NC(=O)[C@@H](NC(=O)[C@H](CO)NC(=O)[C@@H](N)CCCNC(=N)N)CSSC[C@@H](C(=O)O)NC(=O)[C@H]([C@@H](C)O)NC(=O)CNC(=O)[C@@H]2CSSC[C@@H]3NC(=O)[C@H](CCC(N)=O)NC(=O)[C@H](Cc4ccccc4)NC(=O)[C@H](C)NC(=O)[C@H]([C@@H](C)O)NC(=O)[C@H](CSSC[C@H](NC(=O)[C@H](Cc4ccccc4)NC(=O)[C@H](CO)NC(=O)[C@H](CC(C)C)NC(=O)[C@H](CCCNC(=N)N)NC(=O)[C@H](Cc4ccc(O)cc4)NC(=O)[C@H](CCCCN)NC(=O)[C@H](CCSC)NC(=O)[C@H](CO)NC(=O)[C@H](Cc4c[nH]cn4)NC(=O)[C@H](CCCCN)NC3=O)C(=O)N[C@@H](CCCNC(=N)N)C(=O)N[C@@H](CCCCN)C(=O)N[C@@H]([C@@H](C)O)C(=O)N2)NC(=O)[C@H](CCCNC(=N)N)NC(=O)[C@H](CCCCN)NC(=O)[C@H](CCCCN)NC(=O)[C@@H]2CCCN2C(=O)[C@H]([C@@H](C)CC)NC(=O)[C@H]([C@@H](C)O)NC(=O)[C@H](CC(=O)O)NC1=O [[Lys10]ShK] | 0.174 | 0.052 | 0.082
